Test system: insects
Assay: Insect repellence of articles treated with DEET during the rinse cycle of an automated washing machine
Type: in vivo
Experimental: The present invention centers around adding a insect repellent to articles during the rinse cycle of a washing machine. During the rinse cycle, detergent and stains are dissolved into the fluid medium, while the insect repellent is added to the fluid medium and disseminates throughout the fluid medium and articles within the washing machine and is retained by the contents of the washing machine as the fluid medium is partially removed. As the damp articles are removed from the washing machine and subsequently dried, the insect repellent is retained therein as the fluid medium is removed. While there are various application rates of DEET that produce the desired effect of repelling insects from articles under different conditions, it has been found sufficient to provide along the order of 1 fluid ounce of DEET to the articles during the rinse cycle of an automated washing machine. […] It is also within the scope and spirit of the present invention to add […] more than 1 fluid ounce to increase the concentration of DEET retained by the articles after the rinse cycle is complete. For example, if the articles may be exposed to elevated temperatures for an extended period, say 2 hours or more, the amount of DEET added during the rinse cycle may be higher to compensate for the higher amount of DEET emanating from the articles at the elevated temperatures. […] However, higher or lower ratios may be utilized depending upon the conditions of intended use of the articles or the intended duration of insect repellence. As discussed above, the ratio may be […] along the lines of 1:1 to 2:1 to impart insect repellence in accordance with increased exposure to elevated temperatures, and/or to provide insect repellence during a longer duration.

CCN(CC)C(=O)c1cccc(C)c1 [DEET, N,N-diethyl-m-toluamide]
insect repellence (duration) while the article is being used (on the order of 1 fluid ounce of DEET added to the articles during the rinse cycle, article in use): approximately 24 hours | extended insect repellence (duration) for stored articles (on the order of 1 fluid ounce of DEET added to the articles during the rinse cycle, stored articles): approximately one month | repelling insects from the articles (ratio of 4:1 to 5:1 (in fluid ounces) of fabric softener and/or other components to DEET, added to the rinse cycle): provides the desired effect of repelling insects from the articles
